According to article PMC9246773, “Assessing the Activity of Antimicrobial Peptides Against Common Marine Bacteria Located in Rotifer (Brachionus plicatilis) Cultures” (Probiotics and Antimicrobial Proteins, 2022):
No end group written: not given here.

Experiments:
Format in all cases: cell-based
[1] = tested on: Vibrio harveyi; settings: 48 h
Experimental: (§1) A range of bacterial species with the potential to be transferred to developing fish larvae as pathogens or probiotics were selected for use in the study (Table 2). Bacterial isolates were stored at −80 °C and thawed, and 25 µL of the isolates was spread onto marine salt agar (MSA) media. All isolates were incubated at 25 °C for 18 h to reach mid-log growth phase. All isolates were sub-cultured and identified using mass spectrometry (MALDI-TOF) using the BioTyper and MBT 8468 library (Bruker Pty Ltd). The isolate Tenacibaculum discolor was plated on Anacker and Oradal’s marine (AOM) media, incubated for 48 h and identified using the aforementioned method. Bacterial isolates were suspended in sterile saline (0.75% NaCl w/v) to 0.5 McFarland standard. […] The bacterial isolates T. discolor and Pseudoalteromonas sp. require marine salts to grow and were not added to MHB (0‰). The isolate T. discolor requires low nutrients to grow, therefore, a separate MHB (25‰) was prepared at a diluted ratio of 1 part MHB and 7 parts artificial seawater (25‰).
(§2) The protocol was followed to determine the minimum inhibitory concentration (MIC) of the selected peptides. Two MIC assays were performed, firstly to determine whether each peptide precipitated in MHB and thereby required acetic acid adjustments (supplementary materials) and secondly, to determine the antimicrobial activity of each peptide in artificial seawater (25‰). Peptide stock solutions (1.3 mg mL^−1) were made by diluting the peptides in sterile deionised water. MHB was made with deionised water to reach a concentration of approaching 0‰ and artificial sea salts (Sigma-Aldrich® S9883) to reach a salinity of 25‰.
(§3) A broth microdilution protocol was followed to test whether the AMPs precipitated in MHB. The isolates T. discolor and Pseudoalteromonas were excluded from this assay because they required marine salts for growth. The peptides HHC10 and HHC36 previously required acetic acid adjustments according to [63] and were not trialled in this assay. To test if peptides required acetic acid, each peptide was diluted 1:2 in acetic acid (0.02% acetic acid w/v, containing 0.4% BSA) solution. In a 96-well polypropylene microtitre plates (Costar® 3879), 100 µL of this peptide stock was added to the first well for each bacterial isolate tested and serially diluted 2-fold with acetic acid (0.01% acetic acid w/v, containing 0.2% BSA). From each well, 10 µL of each peptide concentration was added to the corresponding wells of a new 96-well microtitre plate. From each of the bacterial suspensions in MHB (0‰), 90 µL was added to each well. […] From each of the bacterial suspensions in MHB (0‰), 50 µL was added to each well. All peptide concentrations ranged from 0.125 - 65µg mL^-1 and the bacterial suspension in each well was approximately 5 × 10^5 CFU mL^-1. Antimicrobial peptides that have an MIC value two or more dilutions higher in the assay with no acetic acid, compared to the assay with acetic acid, require acetic acid adjustments. The 96-well plates were incubated at 25 °C and read at 24 and 48 hours. The MIC was visually determined using a Sensititre™ Vizion™ Digital MIC Viewing System (Thermo Scientific™), and the lowest AMP concentration that had no bacterial growth was recorded as the MIC after 48 hours. Each bacterium was trialled in duplicate.

[2] = tested on: Vibrio harveyi (ATCC 35084); settings: ATCC 35084, 48 h
Experimental: as §1, §2, §3

[3] = tested on: Vibrio alginolyticus; settings: 48 h
Experimental: as §1, §2, §3

[4] = tested on: Vibrio rotiferianus; settings: 48 h
Experimental: as §1, §2, §3

[5] = tested on: Shewanella sp.; settings: 48 h
Experimental: as §1, §2, §3

[6] = tested on: Vibrio scophthalmi; settings: 48 h
Experimental: as §1, §2, §3

[7] = tested on: Escherichia coli (ATCC 25922); settings: ATCC 25922, 48 h
Experimental: as §1, §2, §3

[8] = tested on: Vibrio harveyi; settings: 48 h; remark: listed apart in the source
Experimental: as §1, §2
(§4) Once the acetic acid requirement for each peptide was determined (Table 3), the antimicrobial activity of each peptide was tested at a salinity of 0‰ and 25‰ for all bacterial isolates. A stock solution for peptides that required acetic acid was prepared by a 1:2 dilution in acetic acid (0.02% acetic acid w/v, containing 0.4% BSA) solution. In a 96-well polypropylene microtitre plates (Costar® 3879), 100 µL of this peptide stock was added to the first well for each bacterial isolate tested and serially diluted twofold with acetic acid (0.01% acetic acid w/v, containing 0.2% BSA). From each well, 10 µL of each peptide concentration was added to the corresponding wells of a new 96-well microtitre plate. From each of the bacterial suspensions (0‰), 90 µL was added to each well. […] Twofold serial dilutions were made with MHB (0‰). From each of the bacterial suspensions (0‰), 50 µL was added to each well. The same method was followed for testing peptides in MHB at 25‰. All peptide concentrations ranged from 0.125 to 65 µg mL^−1, and the bacterial suspension in each well was approximately 5 × 10^5 CFU mL^−1. The different salinities were used to compare any differences in antimicrobial activity in 0‰ and 25‰ water. […] Each bacterium was trialled in duplicate.

[9] = tested on: Vibrio harveyi (ATCC 35084); settings: ATCC 35084, 48 h; remark: listed apart in the source
Experimental: as §1, §2, §4

[10] = tested on: bacterial isolates; settings: 48 h
Experimental: as §1, §2, §4

[11] = tested on: Vibrio alginolyticus; settings: 48 h; remark: listed apart in the source
Experimental: as §1, §2, §4

[12] = tested on: Vibrio rotiferianus; settings: 48 h; remark: listed apart in the source
Experimental: as §1, §2, §4

[13] = tested on: Shewanella sp.; settings: 48 h; remark: listed apart in the source
Experimental: as §1, §2, §4

[14] = tested on: Vibrio scophthalmi; settings: 48 h; remark: listed apart in the source
Experimental: as §1, §2, §4

[15] = tested on: Tenacibaculum discolor; settings: 48 h
Experimental: as §1, §2, §4

[16] = tested on: Escherichia coli (ATCC 25922); settings: ATCC 25922, 48 h; remark: listed apart in the source
Experimental: as §1, §2, §4

[17] = tested on: Pseudoalteromonas sp.; settings: 48 h
Experimental: as §1, §2, §4

Substance: KKWQLLIKWKLR-NH2 [Peptide 3008]
- MIC V. harveyi, Acetic [1]: 4.06 µg/mL
- MIC V. harveyi, No acetic [1]: 4.06 µg/mL
- MIC V. harveyi ATCC 35084, Acetic [2]: 16.25 µg/mL
- MIC V. harveyi ATCC 35084, No acetic [2]: 16.25 µg/mL
- MIC V. alginolyticus, Acetic [3]: 1.02 µg/mL
- MIC V. alginolyticus, No acetic [3]: 2.03 µg/mL
- MIC V. rotiferianus, Acetic [4]: 2.03 µg/mL
- MIC V. rotiferianus, No acetic [4]: 1.02 µg/mL
- MIC Shewanella sp., Acetic [5]: 8.13 µg/mL
- MIC Shewanella sp., No acetic [5]: 16.25 µg/mL
- MIC V. scophthalmi, Acetic [6]: 0.51 µg/mL
- MIC V. scophthalmi, No acetic [6]: 1.02 µg/mL
- MIC E. coli ATCC 25922, Acetic [7]: > 65 µg/mL
- MIC E. coli ATCC 25922, No acetic [7]: > 65 µg/mL
- MIC V. harveyi, salinity 0‰ [8]: 4.06 µg/mL
- MIC V. harveyi, salinity 25‰ [8]: > 65 µg/mL
- MIC V. harveyi ATCC 35084, salinity 0‰ [9]: 8.13 µg/mL
- MIC V. harveyi ATCC 35084, salinity 25‰ [9]: > 65 µg/mL
- MIC in artificial seawater (25‰) (over the bacterial isolates) [10]: 32.5 µg/mL
- MIC V. alginolyticus, salinity 0‰ [11]: 2.03 µg/mL
- MIC V. alginolyticus, salinity 25‰ [11]: > 65 µg/mL
- MIC V. rotiferianus, salinity 0‰ [12]: 2.03 µg/mL
- MIC V. rotiferianus, salinity 25‰ [12]: > 65 µg/mL
- MIC Shewanella sp., salinity 0‰ [13]: 16.25 µg/mL
- MIC Shewanella sp., salinity 25‰ [13]: 32.5 µg/mL
- MIC V. scophthalmi, salinity 0‰ [14]: < 0.13 µg/mL
- MIC V. scophthalmi, salinity 25‰ [14]: 32.5 µg/mL
- MIC T. discolor, salinity 25‰ [15]: > 65 µg/mL
- MIC E. coli ATCC 25922, salinity 0‰ [16]: 8.13 µg/mL
- MIC E. coli ATCC 25922, salinity 25‰ [16]: > 65 µg/mL
- MIC Pseudoalteromonas sp., salinity 25‰ [17]: > 65 µg/mL
